pEC50, pKi: −log10 of the molar value. Where only a bound is given, the exact number is not on record here.

We go through 5 compounds from US11220510B2, “Pyrrole tricyclic compounds as A2A / A2B inhibitors” (Incyte Corporation, priority 2018, dated 2022).

For experiment [1], the target named is human adenosine A2B receptor (Homo sapiens (Human), UniProt P29275). Nature of the experiment: Adenosine A2B Receptor Cyclic AMP GS Assay. Conditions: HEK-293 cells expressing human A2B; agonist NECA 12 nM; cAMP accumulation by FRET; read-out: A2B_cAMP_EC50. Type of experiment: cell-based. The protocol:
Example B. Adenosine A2B Receptor Cyclic AMP GS Assay Stably transfected HEK-293 cells expressing the human adenosine A2B receptor (Perkin Elmer) were maintained in MEM culture medium with 10% FBS and 100 μg/ml Geneticin (Life Technologies). 18 to 24 hours prior to assay, geneticin was removed from culture. The cisbio cAMP-GS Dynamic kit utilizing the FRET (Fluorescence Resonance Energy Transfer) technology was used to measure cAMP accumulation in the cells. Compounds of the present disclosure at an appropriate concentration were mixed with 10000 cells/well in white 96 well half area plates (Perkin Elmer) for 30 min at room temperature gently shaking. Agonist, NECA (R&D Technologies) at 12 nM was added to each well for 60 min at room temperature gently shaking. Detection reagents, d2-labeled cAMP (acceptor) and anti-cAMP cryptate (donor) were added to each well for 60 min at RT gently shaking. Plates were read on Pherastar (BMG Labtech), fluorescence ratio 665/620 was calculated and EC50 determination was performed by fitting the curve of percent of control versus the log of the compound concentration using GraphPad Prism.

Experiment [2] addresses Adenosine A2A receptor (Tag-lite Adenosine A2A labeled cells) (Homo sapiens (Human), UniProt P29274). The experiment can be described thus: A2A Tag-lite HTRF assay (fluorescent ligand displacement). The note with it: Red antagonist fluorescent ligand 12.5 nM, one-site competitive binding model, read-out: A2A_Ki. The source says: Example C. A2A Tag-Lite® HTRF Assay
The final concentration of DMSO was 1%.
(In general: In TR-FRET formats the signal depends on donor and acceptor labels being close together.)

Sequence of Adenosine A2A receptor (Tag-lite Adenosine A2A labeled cells) (P29274 whole entry): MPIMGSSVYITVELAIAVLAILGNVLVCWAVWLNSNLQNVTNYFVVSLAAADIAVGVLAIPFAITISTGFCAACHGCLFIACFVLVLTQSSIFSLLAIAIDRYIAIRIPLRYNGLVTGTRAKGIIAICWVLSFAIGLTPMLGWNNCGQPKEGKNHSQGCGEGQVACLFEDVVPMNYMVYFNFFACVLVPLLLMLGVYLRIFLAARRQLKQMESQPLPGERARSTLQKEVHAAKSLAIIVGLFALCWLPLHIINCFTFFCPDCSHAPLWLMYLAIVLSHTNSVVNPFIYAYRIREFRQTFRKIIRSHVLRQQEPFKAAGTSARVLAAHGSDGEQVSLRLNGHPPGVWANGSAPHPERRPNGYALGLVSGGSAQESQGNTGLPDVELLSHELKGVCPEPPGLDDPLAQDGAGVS
Sequence of human adenosine A2B receptor (P29275 whole entry): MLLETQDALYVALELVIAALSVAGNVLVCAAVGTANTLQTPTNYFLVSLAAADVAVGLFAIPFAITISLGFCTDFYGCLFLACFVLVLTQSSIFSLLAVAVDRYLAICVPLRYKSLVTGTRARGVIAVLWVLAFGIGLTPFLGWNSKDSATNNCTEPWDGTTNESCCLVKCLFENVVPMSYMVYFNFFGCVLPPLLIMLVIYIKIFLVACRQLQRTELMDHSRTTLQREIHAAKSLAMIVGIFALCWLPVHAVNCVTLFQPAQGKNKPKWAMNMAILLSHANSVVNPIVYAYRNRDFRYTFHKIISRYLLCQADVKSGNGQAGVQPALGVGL

In the case of `CCCCn1c2cc(-c3cnn(C4CN(c5nccc(C)n5)C4)c3)[nH]c2c(=O)n2c(C)nnc12` [Example 26, 9-Butyl-3-methyl-7-(1-(1-(4-methylpyrimidin-2-yl)azetidin-3-yl)-1H-pyrazol-4-yl)-6,9-dihydro-5H-pyrrolo[3,2-d][1,2,4]triazolo[4,3-a]pyrimidin-5-one], the pEC50 in experiment [1] is 7.00 to 8.00. Further, in experiment [2], the pKi was above 8.00.
Taken in the same sequence, the figures for `CCCCCn1c2cc(-c3cnn(C4CN(c5nccc(C#N)n5)C4)c3)[nH]c2c(=O)n2c(C)nnc12` [Example 20, 2-(3-(4-(3-Methyl-5-oxo-9-pentyl-6,9-dihydro-5H-pyrrolo[3,2-d][1,2,4]triazolo[4,3-a]pyrimidin-7-yl)-1H-pyrazol-1-yl)azetidin-1-yl)pyrimidine-4-carbonitrile] were 7.00 to 8.00 and above 8.00.
Regarding `CCCCCn1c2cc(-c3cnn(Cc4cnc5ccsc5c4)c3)[nH]c2c(=O)n2c(C)nnc12` [Example 4, 3-Methyl-9-pentyl-7-(1-(thieno[3,2-b]pyridin-6-ylmethyl)-1H-pyrazol-4-yl)-6,9-dihydro-5H-pyrrolo[3,2-d][1,2,4]triazolo[4,3-a]pyrimidin-5-one], in experiment [1], the pEC50 was above 8.00. The pKi in experiment [2] is above 8.00.
`CCCCCn1c2cc(-c3cnn(C4CN(c5nccc(N)n5)C4)c3)[nH]c2c(=O)n2c(C)nnc12` [Example 21, 7-(1-(1-(4-Aminopyrimidin-2-yl)azetidin-3-yl)-1H-pyrazol-4-yl)-3-methyl-9-pentyl-6,9-dihydro-5H-pyrrolo[3,2-d][1,2,4]triazolo[4,3-a]pyrimidin-5-one]: the pEC50 in experiment [1] is 7.00 to 8.00. For the same compound, in experiment [2], the pKi is above 8.00.
`CCCCn1c2cc(-c3cnn(C4CN(c5nccc(OC)n5)C4)c3)[nH]c2c(=O)n2c(C)nnc12` [Example 27, 9-Butyl-7-(1-(1-(4-methoxypyrimidin-2-yl)azetidin-3-yl)-1H-pyrazol-4-yl)-3-methyl-6,9-dihydro-5H-pyrrolo[3,2-d][1,2,4]triazolo[4,3-a]pyrimidin-5-one]: the pEC50 in experiment [1] was 7.00 to 8.00. For the same compound, the pKi in experiment [2] is above 8.00.
